System: potato 5-Lipoxygenase enzyme
Test: Lipoxygenase Inhibitor Screening Assay Kit (Cayman), hydroperoxide formation, absorbance 492 nm
Type: biochemical
Settings: positive control at 100 μM
Experimental: Extracts of cranberry fruit (E1) and cranberry leaf (E2) were prepared with food-grade ethanol, and then filtered and dried as described above. Research grade reagents were used for the rest of the assay preparations. Extracts were dissolved in dimethyl sulfoxide (‘DMSO’) to a final concentration of 50 mg/mL, and then diluted in appropriate buffer for each bioassay to working concentrations.
Cranberry fruit extract (E1) and cranberry leaf extract (E2) were tested for 5-LOX inhibition using the Lipoxygenase Inhibitor Screening Assay Kit (available from Cayman Chemical, Ann Arbor, Michigan, US) and potato 5-Lipoxygenase enzyme (available from Cayman Chemical). This kit measures hydroperoxides produced in the lipoxygenation reaction.
The extracts were dissolved in methanol to final working concentrations. 5-LOX enzyme, Chromagen, and Linoleic Acid solutions were prepared immediately before use. Nordihydroguaiaretic acid (‘NDGA’) was used as a positive control. 5-LOX enzyme was added to the test samples and controls and incubated for five minutes at room temperature to allow for enzyme/inhibitor interaction. Linoleic acid substrate was added to the plate to initiate the reaction, and the plate was then shaken at room temperature for 10 minutes. […] The absorbance was then read at 492 nm. Percent inhibition of the extract concentration was calculated in comparison to the uninhibited control wells. […]

CC(Cc1ccc(O)c(O)c1)C(C)Cc1ccc(O)c(O)c1 (stereo not shown) [NDGA, Nordihydroguaiaretic acid]
5-LOX enzyme inhibition: 100%

Reference: patent publication US11918615B2, “Anti-inflammatory botanical extract” (Innophos, LLC, priority 2018, dated 2024)
